The values that follow come from patent publication US20040197865A1, “Gene expression systems and recombinant cell lines” (3M Innovative Properties Company, priority 2002, published 2004).

The target in the experiment is T1, human TLR6 (Homo sapiens, UniProt Q9Y2C9).
T1 construct: expressed in transfected cells; host or cells: Namalwa cells (ATCC CRL-1432), co-transfected with pIFN-α1-luc and pCI-TLR6, G418-selected
In words: Luciferase induction off the IFN-α1 promoter in pIFN-α1-luc/pCI-TLR6 co-transfected Namalwa cells. The class given is cell-based. The following applies: IRM compound 10 μM, 18 hours, fold increase compared to DMSO negative control, representative experiment. From the text: The vector pIFN-α1-luc was constructed by inserting BglII sites at both ends of the human IFN-α1 promoter (SEQ ID NO:21). The BglII sites were inserted into the IFN-α1 promoter and the sequence was amplified using the primer pair of SEQ ID NO:22 and SEQ ID NO:23. The amplified IFN-α1 promoter was cloned into the pGL3-Enhancing vector (Promega Corp., Madison, Wis.) at its BglII site.
The vector pCI-TLR6 was constructed by inserting SEQ ID NO:11 (GenBank Accession No. NM 006068), which includes the human TLR6 coding sequence, into the pCI-neo mammalian expression vector (Promega Corp.) at the vector's NheI and MluI restriction sites.
Burkitt's Lymphoma lymphoblastoid Namalwa cells (ATCC Accession No. CRL-1432) were grown by incubation in culture medium overnight. Cells were harvested by centrifugation in a tabletop centrifuge (1200 RPM for 5 minutes), and then resuspended in phosphate buffered sucrose to a concentration of 1.3×10^7 cells per milliliter.
For each transfection, a 750 μL aliquot of the cell suspension was placed in an electroporation cuvette with 4 mm gaps. 10 μg of the pIFN-α1-luc vector and 10 μg of the pCI-TLR6 vector were added to the electroporation cuvette. The cell and vector mixtures were incubated at room temperature for 5 minutes. The cells were electroporated using a BioRad Gene Pulser (BioRad Laboratories, Hercules, Calif.) set to at 500 μF capacitance and […], then incubated at room temperature for 5 minutes.
The electroporated cells were suspended in 10 mLs of culture medium and incubated overnight. Dead cells and debris were removed after 24 hours using a MACS Dead Cell Removal kit (Miltenyi Biotec, Auburn, Calif.). Cells were resuspended in 10 mLs of culture medium and incubated for an additional 24 hours.
Transfected cells were selected by adding G418 (Promega Corp., Madison, Wis.) to a final concentration of 1 mg/mL and incubating the cells for seven days.
The selected transfected cells were counted and resuspended to a concentration of 1×10^6 cell per mL in culture medium. 100 μl aliquots of cells were placed in the wells of a white-walled, white-bottomed 96-well plate (Corning, Inc. Corning, N.Y.). 1.0 μL of an IRM compound from Table 1 (prepared at 1 mM in 100% DMSO) was added to some cell aliquots so that the final concentration of IRM compound was 10 μM. As a positive control, some cell aliquots were incubated with Sendai virus instead of IRM compound. As a negative control, some cell aliquots were incubated with DMSO without IRM compound. In all cases, the cells were incubated for 18 hours.
The plates were equilibrated to room temperature before 1 volume of reconstituted LucLight Plus (Packard Instruments, Meriden, Conn.) was added to each aliquot of cells. Each well of the plate was read on an LJL Analyst (LJL Biosystems, Inc., Sunnyvale, Calif.) set with a 5 minute dark adapt. The data are expressed as the fold increase in luciferase induction off of the IFN-α1 promoter in cell aliquots incubated with the indicated stimulant compared to the negative control in which the cell aliquots were incubated with only DMSO.

T1 sequence (Q9Y2C9 32-796): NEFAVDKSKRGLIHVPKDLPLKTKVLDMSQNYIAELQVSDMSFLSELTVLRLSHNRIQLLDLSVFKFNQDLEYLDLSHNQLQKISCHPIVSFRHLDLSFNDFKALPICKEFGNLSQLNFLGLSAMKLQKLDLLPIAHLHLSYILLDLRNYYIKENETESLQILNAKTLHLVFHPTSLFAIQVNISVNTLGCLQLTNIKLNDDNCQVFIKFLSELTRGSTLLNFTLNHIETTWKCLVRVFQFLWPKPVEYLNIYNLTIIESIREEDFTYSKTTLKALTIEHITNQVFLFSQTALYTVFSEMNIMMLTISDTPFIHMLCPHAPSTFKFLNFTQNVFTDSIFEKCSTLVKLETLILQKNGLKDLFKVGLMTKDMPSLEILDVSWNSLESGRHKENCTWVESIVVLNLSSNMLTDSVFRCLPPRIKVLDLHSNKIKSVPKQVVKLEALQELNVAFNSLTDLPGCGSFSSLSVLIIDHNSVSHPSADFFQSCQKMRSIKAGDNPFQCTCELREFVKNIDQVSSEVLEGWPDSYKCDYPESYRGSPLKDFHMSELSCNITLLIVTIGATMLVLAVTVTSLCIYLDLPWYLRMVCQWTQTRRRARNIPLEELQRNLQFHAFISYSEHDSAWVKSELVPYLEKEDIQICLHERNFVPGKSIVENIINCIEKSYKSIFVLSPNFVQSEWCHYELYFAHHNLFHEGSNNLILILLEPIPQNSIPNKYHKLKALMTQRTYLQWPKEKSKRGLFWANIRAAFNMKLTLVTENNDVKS
T1 sequence (O60603 19-784 partner limits assumed): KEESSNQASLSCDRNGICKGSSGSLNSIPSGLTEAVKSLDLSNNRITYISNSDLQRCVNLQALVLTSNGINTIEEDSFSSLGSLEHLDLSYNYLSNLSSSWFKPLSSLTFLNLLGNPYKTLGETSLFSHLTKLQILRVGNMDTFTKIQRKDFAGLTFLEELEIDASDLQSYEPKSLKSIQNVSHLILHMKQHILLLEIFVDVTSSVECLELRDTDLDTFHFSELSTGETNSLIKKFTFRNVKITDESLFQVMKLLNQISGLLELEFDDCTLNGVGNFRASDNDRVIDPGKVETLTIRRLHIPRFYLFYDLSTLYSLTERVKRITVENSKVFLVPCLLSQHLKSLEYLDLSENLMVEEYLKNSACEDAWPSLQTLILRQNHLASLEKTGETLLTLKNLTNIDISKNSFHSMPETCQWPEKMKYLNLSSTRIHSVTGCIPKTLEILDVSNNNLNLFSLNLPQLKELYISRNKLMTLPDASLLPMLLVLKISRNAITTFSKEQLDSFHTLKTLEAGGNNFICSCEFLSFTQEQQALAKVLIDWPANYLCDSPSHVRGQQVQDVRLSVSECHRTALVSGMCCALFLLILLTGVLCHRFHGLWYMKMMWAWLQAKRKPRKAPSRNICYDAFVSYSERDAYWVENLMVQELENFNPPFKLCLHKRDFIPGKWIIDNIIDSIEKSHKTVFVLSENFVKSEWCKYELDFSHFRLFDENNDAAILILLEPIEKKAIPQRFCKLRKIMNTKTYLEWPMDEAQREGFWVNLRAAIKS

`CCOCc1nc2c(N)nc3c(c2n1CC(C)(C)O)CCCC3` [IRM1, 4-amino-2-ethoxymethyl-α,α-dimethyl-6,7,8,9-tetrahydro-1H-imidazo[4,5-c]quinoline-1-ethanol]: the “Fold Increase in Luciferase Induction” value is 3.6.

Turning to `Cc1nc2c(N)nc3ccccc3c2n1CC(C)(C)O` [IRM2, 4-amino-α,α,2-trimethyl-1H-imidazo[4,5-c]quinoline-1-ethanol], the “Fold Increase in Luciferase Induction” value worked out at 2.7.

As to `CCCCc1nc2c(N)nc3ccccc3c2n1CCCCNS(C)(=O)=O` [IRM3, N-[4-(4-amino-2-butyl-1H-imidazo[4,5-c]quinolin-1-yl)butyl]methanesulfonamide], the “Fold Increase in Luciferase Induction” value is 2.6.

With `Nc1nc2ccccc2c2c1ncn2CCOCCCc1cccnc1` [IRM4, 1-{2-[3-(3-pyridyl)propoxy]ethyl}-1H-imidazo[4,5-c]quinolin-4-amine], the “Fold Increase in Luciferase Induction” value amounted to 4.0.

On to `CCCCc1nc2c(N)nc3cccnc3c2n1CC(C)C` [IRM5, 2-butyl-1-(2-methylpropyl)-1H-imidazo[4,5-c][1,5]naphthyridin-4-amine], for which the “Fold Increase in Luciferase Induction” value is 3.2.

Take `CCCCc1nc2c(N)nc3c(c2n1CC(C)C)NCCC3` [IRM6, 2-butyl-6,7,8,9-tetrahydro-1-(2-methylpropyl)-1H-imidazo[4,5-c][1,5]naphthyridin-4-amine]: the “Fold Increase in Luciferase Induction” value worked out at 2.9.

In the case of `COCCc1nc2c(N)nc3ccccc3c2n1CCCCNC(=O)c1ccc(-n2cccc2)nc1` [IRM7, N^3-{4-[4-amino-2-(2-methoxyethyl)-1H-imidazo[4,5-c]quinolin-1-yl]butyl}-6-(1H-1-pyrrolyl)nicotinamide], the “Fold Increase in Luciferase Induction” value is given as 3.2.

On to `CCc1nc2c(N)nc3ccccc3c2n1CCCCCS(C)(=O)=O` [IRM8, 2-ethyl-1-[5-(methylsulfonyl)pentyl]-1H-imidazo[4,5-c]quinolin-4-amine], for which the “Fold Increase in Luciferase Induction” value was found to be 2.3.
